Experimental data taken from US4065616A, “Processes for production of a 1-N-(α-hydroxy-.PHI.-amino alkanoyl)-3-deoxy-5-O-pentafuranosyl neamine and new compounds produced by the same processes” (Zaidan Hojin Biseibutsu Kagaku Kenkyu Kai, priority 1975, dated 1977).
Values after ≈ are worked out from the molar mass of the structure shown. Where two headings read alike, the source gives them in different places.

How the values were obtained:
Test in all cases: M.I.C. by standard serial dilution method
Format in all cases: cell-based
[1] = system: Mycobacterium smegmatis ATCC 607; settings: Mycolicibacterium smegmatis, ATCC607, nutrient agar, 37° C, 48 hours, read-out: minimum inhibitory concentration (M.I.C.)
Experimental: (§1) These particular compounds, that is, 1-n-(α-hydroxy-ω-aminoalkanoyl)-3'-deoxy-5-O-pentofuranosylneamines according to the aforesaid general formula (I) have useful antibacterial activity against a wide variety of bacteria, including gram-negative bacteria and gram-positive bacteria. The minimum inhibitory concentration (M.I.C.) (mcg/ml) of these compounds against various organisms was determined by a standard serial dilution method at an incubation temperature of 37° C, the estimation being made after 18 hours incubation or each test organism, except that the incubation time was 48 hours for Mycobacterium smegmatis. The incubation medium used was nutrient agar.

[2] = system: Klebsiella pneumoniae PCI 602; settings: read-out: minimum inhibitory concentration (M.I.C.)
Experimental: as §1

[3] = system: Escherichia coli K-12 W677; settings: K12W677, E. coli K-12 W677, nutrient agar, 37° C, 18 hours, read-out: minimum inhibitory concentration (M.I.C.)
Experimental: as §1

[4] = system: Pseudomonas aeruginosa GN 315; settings: GN315, P. aeruginosa GN 315, nutrient agar, 37° C, 18 hours, read-out: minimum inhibitory concentration (M.I.C.)
Experimental: as §1

[5] = system: Escherichia coli K-12 ML 1410 R81; settings: 18 h, read-out: minimum inhibitory concentration (M.I.C.)
Experimental: as §1

[6] = system: Escherichia coli K-12; settings: K12, E. coli K-12, nutrient agar, 37° C, 18 hours, read-out: minimum inhibitory concentration (M.I.C.)
Experimental: as §1

[7] = system: Escherichia coli K-12 LA 290 R55; settings: K12LA290R55, 18 h, read-out: minimum inhibitory concentration (M.I.C.)
Experimental: as §1

[8] = system: Klebsiella pneumoniae Type 22, No. 3038; settings: read-out: minimum inhibitory concentration (M.I.C.)
Experimental: as §1

[9] = system: Escherichia coli K-12 ML 1410; settings: K12ML1410, E. coli K-12 ML 1410, nutrient agar, 37° C, 18 hours, read-out: minimum inhibitory concentration (M.I.C.)
Experimental: as §1

[10] = system: Sarcina lutea PCl 1001; settings: Micrococcus luteus, PCL1001, nutrient agar, 37° C, 18 hours, read-out: minimum inhibitory concentration (M.I.C.)
Experimental: as §1

[11] = system: Pseudomonas aeruginosa No. 12; settings: P. aeruginosa No. 12, nutrient agar, 37° C, 18 hours, read-out: minimum inhibitory concentration (M.I.C.)
Experimental: as §1

[12] = system: Proteus rettgeri GN 311; settings: Providencia rettgeri, GN311, nutrient agar, 37° C, 18 hours, read-out: minimum inhibitory concentration (M.I.C.)
Experimental: as §1

[13] = system: Pseudomonas aeruginosa TI-13; settings: TI13, P. aeruginosa TI-13, nutrient agar, 37° C, 18 hours, read-out: minimum inhibitory concentration (M.I.C.)
Experimental: as §1

[14] = system: Escherichia coli K-12 LA 290 R64; settings: K12LA290R64, 18 h, read-out: minimum inhibitory concentration (M.I.C.)
Experimental: as §1

[15] = system: Pseudomonas aeruginosa 99; settings: P. aeruginosa 99, nutrient agar, 37° C, 18 hours, read-out: minimum inhibitory concentration (M.I.C.)
Experimental: as §1

[16] = system: Escherichia coli K-12 JR66/W677; settings: K12JR66/W677, 18 h, read-out: minimum inhibitory concentration (M.I.C.)
Experimental: as §1

[17] = system: Staphylococcus aureus FDA 209P; settings: FDA209P, read-out: minimum inhibitory concentration (M.I.C.)
Experimental: as §1

[18] = system: Escherichia coli K-12 ML 1630; settings: K12ML1630, E. coli K-12 ML 1630, nutrient agar, 37° C, 18 hours, read-out: minimum inhibitory concentration (M.I.C.)
Experimental: as §1

[19] = system: Bacillus subtilis B-558; settings: B558, B. subtilis B-558, nutrient agar, 37° C, 18 hours, read-out: minimum inhibitory concentration (M.I.C.)
Experimental: as §1

[20] = system: Escherichia coli K-12 ML 1629; settings: read-out: minimum inhibitory concentration (M.I.C.)
Experimental: as §1

[21] = system: Salmonella typhosa T-63; settings: Salmonella enterica, 18 h, read-out: minimum inhibitory concentration (M.I.C.)
Experimental: as §1

[22] = system: Escherichia coli K-12 LA 290 R56; settings: K12LA290R56, 18 h, read-out: minimum inhibitory concentration (M.I.C.)
Experimental: as §1

[23] = system: Escherichia coli NIHJ; settings: E. coli NIHJ, nutrient agar, 37° C, 18 hours, read-out: minimum inhibitory concentration (M.I.C.)
Experimental: as §1

[24] = system: Proteus rettgeri GN 466; settings: Providencia rettgeri, read-out: minimum inhibitory concentration (M.I.C.)
Experimental: as §1

[25] = system: Pseudomonas aeruginosa A3; settings: P. aeruginosa A3, nutrient agar, 37° C, 18 hours, read-out: minimum inhibitory concentration (M.I.C.)
Experimental: as §1

[26] = PCI602, K. pneumoniae PCI 602, nutrient agar, 37° C, 18 hours
[27] = K. pneumoniae Type 22, No. 3038, nutrient agar, 37° C, 18 hours
[28] = S. aureus FDA 209P, nutrient agar, 37° C, 18 hours
[29] = K12ML1629, E. coli K-12 ML 1629, nutrient agar, 37° C, 18 hours
[30] = GN466, Proteus rettgeri GN 466, nutrient agar, 37° C, 18 hours

Structure (SMILES): NC[C@H](O)C(=O)N[C@@H]1C[C@H](N)[C@@H](O[C@H]2O[C@H](CN)[C@@H](O)C[C@H]2N)[C@H](O[C@@H]2O[C@H](CO)[C@H](O)[C@H]2O)[C@H]1O [Compound No. 2, 1-n-((S)-3-amino-2-hydroxypropionyl)-3'-deoxy-5-O-β-D-xylofuranosylneamine]
- MIC [1]: 0.39 µg/mL (≈ 0.742 µM)
- MIC ([2]; PCI602, 18 h): 1.56 µg/mL (≈ 2.97 µM)
- MIC [3]: 0.78 µg/mL (≈ 1.48 µM)
- MIC [4]: > 100 µg/mL
- MIC [5]: 3.12 µg/mL (≈ 5.94 µM)
- MIC [6]: 0.39 µg/mL (≈ 0.742 µM)
- MIC [7]: 0.78 µg/mL (≈ 1.48 µM)
- MIC ([8]; 18 h): 1.56 µg/mL (≈ 2.97 µM)
- MIC [9]: 3.12 µg/mL (≈ 5.94 µM)
- MIC [10]: 25 µg/mL (≈ 47.6 µM)
- MIC [11]: 12.5 µg/mL (≈ 23.8 µM)
- MIC [12]: 6.25 µg/mL (≈ 11.9 µM)
- MIC [13]: 25 µg/mL (≈ 47.6 µM)
- MIC [14]: 0.78 µg/mL (≈ 1.48 µM)
- MIC [15]: 12.5 µg/mL (≈ 23.8 µM)
- MIC [16]: 0.78 µg/mL (≈ 1.48 µM)
- MIC ([17]; 18 h): 1.56 µg/mL (≈ 2.97 µM)
- MIC [18]: 1.56 µg/mL (≈ 2.97 µM)
- MIC [19]: 0.78 µg/mL (≈ 1.48 µM)
- MIC ([20]; K12ML1629, 18 h): 1.56 µg/mL (≈ 2.97 µM)
- MIC [21]: 0.78 µg/mL (≈ 1.48 µM)
- MIC [22]: 0.78 µg/mL (≈ 1.48 µM)
- MIC [23]: 0.78 µg/mL (≈ 1.48 µM)
- MIC ([24]; GN466, 18 h): 1.56 µg/mL (≈ 2.97 µM)
- MIC [25]: 3.12 µg/mL (≈ 5.94 µM)

Structure (SMILES): NCC[C@H](O)C(=O)N[C@@H]1C[C@H](N)[C@@H](O[C@H]2O[C@H](CN)[C@@H](O)C[C@H]2N)[C@H](O[C@@H]2O[C@H](CO)[C@@H](O)[C@H]2O)[C@H]1O [Compound No. 5, 1-N-((S)-4-amino-2-hydroxybutyryl)-3'-deoxy-5-O-β-D-ribofuranosylneamine]
- MIC [1]: < 0.2 µg/mL
- MIC [2, 26]: 0.39 µg/mL (≈ 0.723 µM)
- MIC [3]: 0.39 µg/mL (≈ 0.723 µM)
- MIC [4]: > 100 µg/mL
- MIC [6]: 0.2 µg/mL (≈ 0.371 µM)
- MIC [7]: 0.78 µg/mL (≈ 1.45 µM)
- MIC [8, 27]: 0.78 µg/mL (≈ 1.45 µM)
- MIC [9]: 0.78 µg/mL (≈ 1.45 µM)
- MIC [10]: 25 µg/mL (≈ 46.3 µM)
- MIC [11]: 25 µg/mL (≈ 46.3 µM)
- MIC [12]: 3.12 µg/mL (≈ 5.78 µM)
- MIC [13]: 25 µg/mL (≈ 46.3 µM)
- MIC [14]: 0.2 µg/mL (≈ 0.371 µM)
- MIC [15]: 12.5 µg/mL (≈ 23.2 µM)
- MIC [16]: 1.56 µg/mL (≈ 2.89 µM)
- MIC [17, 28]: 0.39 µg/mL (≈ 0.723 µM)
- MIC [18]: 1.56 µg/mL (≈ 2.89 µM)
- MIC [19]: < 0.2 µg/mL
- MIC [20, 29]: 0.39 µg/mL (≈ 0.723 µM)
- MIC [21]: 0.39 µg/mL (≈ 0.723 µM)
- MIC [22]: 0.39 µg/mL (≈ 0.723 µM)
- MIC [23]: 0.78 µg/mL (≈ 1.45 µM)
- MIC [24, 30]: 0.78 µg/mL (≈ 1.45 µM)
- MIC [25]: 3.12 µg/mL (≈ 5.78 µM)

Structure (SMILES): NCC[C@H](O)C(=O)N[C@@H]1C[C@H](N)[C@@H](O[C@H]2O[C@H](CN)[C@@H](O)C[C@H]2N)[C@H](O[C@@H]2O[C@H](CO)[C@H](O)[C@H]2O)[C@H]1O [compound 6, 1-N-((S)-4-amino-2-hydroxybutyryl)-3'-deoxy-5-O-β-D-xylofuranosylneamine]
- MIC [1]: 0.2 µg/mL (≈ 0.371 µM)
- MIC [2, 26]: 0.39 µg/mL (≈ 0.723 µM)
- MIC [3]: 0.39 µg/mL (≈ 0.723 µM)
- MIC [4]: > 100 µg/mL
- MIC [5]: 1.56 µg/mL (≈ 2.89 µM)
- MIC [6]: 0.39 µg/mL (≈ 0.723 µM)
- MIC [7]: 0.78 µg/mL (≈ 1.45 µM)
- MIC [8, 27]: 0.39 µg/mL (≈ 0.723 µM)
- MIC [9]: 1.56 µg/mL (≈ 2.89 µM)
- MIC [10]: 25 µg/mL (≈ 46.3 µM)
- MIC [11]: 25 µg/mL (≈ 46.3 µM)
- MIC [12]: 3.12 µg/mL (≈ 5.78 µM)
- MIC [13]: 25 µg/mL (≈ 46.3 µM)
- MIC [14]: 0.2 µg/mL (≈ 0.371 µM)
- MIC [15]: 12.5 µg/mL (≈ 23.2 µM)
- MIC [16]: 0.39 µg/mL (≈ 0.723 µM)
- MIC [17, 28]: 0.39 µg/mL (≈ 0.723 µM)
- MIC [18]: 0.78 µg/mL (≈ 1.45 µM)
- MIC [19]: 0.2 µg/mL (≈ 0.371 µM)
- MIC [20, 29]: 0.39 µg/mL (≈ 0.723 µM)
- MIC [21]: 0.78 µg/mL (≈ 1.45 µM)
- MIC [22]: 0.39 µg/mL (≈ 0.723 µM)
- MIC [23]: 0.78 µg/mL (≈ 1.45 µM)
- MIC [24, 30]: 0.78 µg/mL (≈ 1.45 µM)
- MIC [25]: 3.12 µg/mL (≈ 5.78 µM)

Structure (SMILES): NCC[C@H](O)C(=O)N[C@@H]1C[C@H](N)[C@@H](O[C@H]2O[C@H](CN)[C@@H](O)C[C@H]2N)[C@H](O[C@@H]2O[C@H](CN)[C@H](O)[C@H]2O)[C@H]1O [compound 4, 1-N-((S)-4-amino-2-hydroxybutyryl)-5-O-(5-amino-5-deoxy-β-D-xylofuranosyl)-3'-doxyneamine]
- MIC [1]: 0.2 µg/mL (≈ 0.371 µM)
- MIC [2, 26]: 0.39 µg/mL (≈ 0.724 µM)
- MIC [3]: 0.39 µg/mL (≈ 0.724 µM)
- MIC [4]: > 100 µg/mL
- MIC [5]: 0.78 µg/mL (≈ 1.45 µM)
- MIC [6]: 0.2 µg/mL (≈ 0.371 µM)
- MIC [7]: 0.39 µg/mL (≈ 0.724 µM)
- MIC [8, 27]: 0.39 µg/mL (≈ 0.724 µM)
- MIC [9]: 0.78 µg/mL (≈ 1.45 µM)
- MIC [10]: 3.12 µg/mL (≈ 5.79 µM)
- MIC [11]: 3.12 µg/mL (≈ 5.79 µM)
- MIC [12]: 3.12 µg/mL (≈ 5.79 µM)
- MIC [13]: 3.12 µg/mL (≈ 5.79 µM)
- MIC [14]: 0.39 µg/mL (≈ 0.724 µM)
- MIC [15]: 3.12 µg/mL (≈ 5.79 µM)
- MIC [16]: 0.2 µg/mL (≈ 0.371 µM)
- MIC [17, 28]: 0.39 µg/mL (≈ 0.724 µM)
- MIC [18]: 0.78 µg/mL (≈ 1.45 µM)
- MIC [19]: 0.2 µg/mL (≈ 0.371 µM)
- MIC [20, 29]: 0.39 µg/mL (≈ 0.724 µM)
- MIC [21]: 0.2 µg/mL (≈ 0.371 µM)
- MIC [22]: 0.78 µg/mL (≈ 1.45 µM)
- MIC [23]: 0.2 µg/mL (≈ 0.371 µM)
- MIC [24, 30]: 0.78 µg/mL (≈ 1.45 µM)
- MIC [25]: 0.39 µg/mL (≈ 0.724 µM)
